Results reported in patent US20070129415A1, “Method of Treating Isolated Systolic Hypertension” (priority 1997, published 2007).

Tested on: prejunctional AII receptors and sympathetic outflow
Assay: Spinal cord-stimulated pithed rats: pressor response to stimulation of sympathetic vasomotor outflow
Assay type: in vivo, Sprague-Dawley rats
Conditions: pithed rat; for inhibition of the pressor responses mediated by sympathetic nervous system activation (spinal cord stimulation): 0.3 mg/kg, i.v. 10 min before second frequency-response curve, 50 V, 1 msec, 0.3-5.0 Hz
Experimental: Normotensive male Sprague-Dawley rats (300-350 gm) were anesthetized with Brevital (10 mg/kg, i.v.), a tracheostomy was performed and the rats were then pithed by inserting a steel rod (1.5 mm in diameter) through the orbit and foramen magnum into the spinal cord. Immediately after pithing, rats were ventilated artificially with room air using a rodent respirator at a frequency of 60 cycles/min with a volume of 2 ml/100 gm body weight. The pithing rod was insulated except for a 6-cm section distal from the tip. Body temperature was maintained at 37-38° C. by a thermostatic heating pad. Animals were treated with tubocurararine (1 mg/kg, i.v) and atropine (1 mg/kg, i.v.), to prevent muscle movement during spinal cord stimulation and parasympathetic effects, respectively. Systemic arterial blood pressure was measured from the right carotid artery by a Statham P23 pressure transducer and recorded on a Grass polygraph. The left jugular vein was cannulated for i.v. administration of drugs.
Stimulation of sympathetic vasomotor outflow was accomplished by a consecutive train of stimulation (50 V, 1 msec, 0.3-5.0 Hz) which was delivered for 15 sec at each frequency. […] For all the compounds evaluated, this dose provided effective blockade of the pressor response to exogenous AII (100 ng/kg, i.v.). Each rat served as its own control.
AII data are shown as the means±S.E.M. of the number (n) of observations. Statistical significance of the differences between drug-treated animals and vehicle-control animals was tested by a one-way analysis of variance with a P valued of 0.05 accepted as significant.

In the case of `CCCCc1ncc(/C=C(\Cc2cccs2)C(=O)O)n1Cc1ccc(C(=O)O)cc1` [Eprosartan, (E)-α-[2-n-butyl-1-[(4-carboxyphenyl)methyl]-1H-imidazol-5-yl]methylene-2-thiophenepropionic acid monomethanesulfonate], the “inhibition of the pressor responses mediated by sympathetic nervous system activation (spinal cord stimulation)” value (“inhibition … (spinal cord stimulation)” below) is reported as “significant inhibition”.

In the case of `CCCCC1=NC2(CCCC2)C(=O)N1Cc1ccc(-c2ccccc2-c2nnn[nH]2)cc1` [irbesartan], the “inhibition … (spinal cord stimulation)” value is reported as “neither losartan, valsartan, or irbesartan produced significant inhibition”.

In the case of `CCCCc1nc(Cl)c(CO)n1Cc1ccc(-c2ccccc2-c2nn[nH]n2)cc1` [losartan], the “inhibition … (spinal cord stimulation)” value is reported as “neither losartan, valsartan, or irbesartan produced significant inhibition”.

With `CCCCC(=O)N(Cc1ccc(-c2ccccc2-c2nnn[nH]2)cc1)[C@H](C(=O)O)C(C)C` [valsartan] the “inhibition … (spinal cord stimulation)” value was “neither losartan, valsartan, or irbesartan produced significant inhibition”.

Sar^1-Ile^8[AII] was tested, and the “inhibition of the increase in pressor response to spinal cord stimulation” value (continuous infusion 10 ug/kg/min) was “significantly inhibited”.

In the case of “angiotensin II (DRVYIHPF; Angiotensin-2; UniProt P01019 25-32, looked up) [AII, angiotensin II (AII), infused at a sub-pressor dose]”, the “shift of the frequency-response curve (pressor response to spinal cord stimulation)” value (continuous infusion of a sub-pressor dose, 40 ng/kg/min) is reported as “significant leftward shifts”.
